Test results: patent US20250084080A1, “CRYSTALLINE AND SALT FORMS OF AN NLRP3 INHIBITOR” (BioAge Labs, Inc., priority 2023, published 2025)
Converted amounts (≈) assume the structure as drawn.

Assays:
Assay type in all cases: physicochemical
[1] = Bulk stability (solid state, 1 week; HPLC, XRPD, IC, color); conditions: 25° C./92.5% RH open, 40° C./75% RH open, 60° C. tight container
Procedure: Bulk stability of free form Pattern B was evaluated at 25° C./92.5% RH in an open container, at 40° C./75% RH in an open container and at 60° C. in a tight container over 1 week.

[2] = Solubility at 37° C. in buffers and biorelevant media, XRPD of residual solid; conditions: for XRPD of residual solid: 24 h; for solubility: thermodynamic from solid
Procedure: Solubility of BAL-0748 free form Pattern B was investigated in pH 1.2 HCl buffer, pH 4.5 50 mM acetate buffer, pH 6.8 50 mM phosphate buffer, water, pH 1.6 FaSSGF, pH 6.5 FaSSIF-v1, pH 5.0 FeSSIF-v1 and 2% HPMC+1% Pluronic F68 in pH 4.5 50 mM acetate buffer at 37° C. for 2 h and 24 h. Residual solids after the solubility test were analyzed by XRPD.
Solubility of the free form Pattern A, the HCl salt Pattern A, the phosphate salt Pattern A, and the sodium salt Pattern A was measured in pH 1.2 HCl buffer, pH 4.5 acetate buffer (50 mM), pH 6.8 phosphate buffer (50 mM), water, pH 1.6 FaSSGF, pH 6.5 FaSSIF-v1, pH 5.0 FeSSIF-v1, and 2% HPMC+1% Pluronic F68 in pH 4.5 acetate buffer (50 mM) at 37° C. for 2 hours and 24 hours.
10.4 mg of the free form Pattern A, 10.0 mg of the free form Pattern B, 10.8 mg of the HCl salt Pattern A, 12.2 mg of the phosphate salt Pattern A, or 10.5 mg of the sodium salt Pattern A was weighed into a 20 mL glass vial, respectively. 5 mL of solubility medium was added. The salt amount used was equivalent to 10 mg anhydrous free form. Obtained suspensions were stirred at 37° C. at 400 rpm and sampled at 2 hours and at 24 hours. The samples were centrifuged at 37° C. at 14,000 rpm for 5 min. Supernatants were analyzed by HPLC and PH meter for solubility and pH value, respectively. Residual solids (wet cakes) from the 24 hours samples were also characterized by XRPD to determine physical form.

[3] = Hygroscopicity by dynamic vapor sorption (DVS) at 25° C.; conditions: DVS at 25° C.
Procedure: Dynamic vapor sorption (DVS) was performed on an Intrinsic, Advantage or Adventure with an oven temperature of 25° C. using water as a solvent. The sample mass was about 5-10 mg using the following method: • Cycle: 40-0-95-0-40% RH • Stage Step: 10% • Equilibrium: 0.002 dm/dt (%/min) • Minimum dm/dt stability duration: 60 min • Maximum dm/dt stage time: 360 min. Hygroscopicity of free form Pattern B was evaluated by dynamic vapor sorption (DVS) test at 25° C. […] It absorbed about 0.8% water at 80% RH at 25° C.

[4] = Exposure of Pattern C in ambient condition (variable temperature XRPD); conditions: 23° C., 27% RH
Procedure: Pattern C is an anhydrate. It was obtained in variable temperature XRPD experiment by heating Pattern A to 100° C. under the nitrogen atmosphere. Pattern C is of high crystallinity. According to the DSC thermogram of Pattern A, Pattern C has a melting peak at Tonset of 134.2° C. Pattern C is a metastable form.

SMILES	Bulk stability, chemical and physical [1]	Degradation by HPLC [1]	Form change by XRPD [1]	XRPD of residual solid ([2]; FaSSGF, pH 1.6, 37° C.)	Form after the solubility test (XRPD) ([2]; most of media)	XRPD of residual solid ([2]; pH 1.2 HCl buffer, 37° C.)	solubility ([2]; other media (pH 4.5 acetate, pH 6.8 phosphate, water, FaSSIF-v1, HPMC/Pluronic), 37° C., 2 h and 24 h)	solubility ([2]; pH 1.2 HCl buffer, pH 1.6 FaSSGF and pH 5.0 FeSSIF-v1, 37° C.)	Hygroscopicity [3]	XRPD after DVS test [3]	Water absorbed at 80% RH ([3]; 80% RH)	Form conversion after exposure in ambient condition [4]
CCOc1cc(C(=O)N(C)Cc2cnc(CO)c3cn[nH]c23)ccc1-c1cc(F)cc(F)c1 [Free form Pattern B, 2-ethoxy-3′,5′-difluoro-N-((4-(hydroxymethyl)-1H-pyrazolo[4,3-c]pyridin-7-yl)methyl)-N-methyl-[1,1′-biphenyl]-4-carboxamide]	physically and chemically stable	no obvious degradation	no form change	hemi-HCl salt Pattern A	no form change or partially converted to free form Pattern A	Mono-HCl salt Pattern A	2 to 80 µg/mL (≈ 4.42 to 177 µM)	100 to 600 µg/mL (≈ 221 to 1330 µM)	slightly hygroscopic	still Pattern B	about 0.8%	–
CCOc1cc(C(=O)N(C)Cc2cnc(CO)c3cn[nH]c23)ccc1-c1cc(F)cc(F)c1 [Pattern C, 2-ethoxy-3′,5′-difluoro-N-((4-(hydroxymethyl)-1H-pyrazolo[4,3-c]pyridin-7-yl)methyl)-N-methyl-[1,1′-biphenyl]-4-carboxamide]	–	–	–	–	–	–	–	–	–	–	–	converted to Pattern A
